Data on two compounds can be found in US20230172205A1 (priority 2020, published 2023).

Experiment [1] deals with Phakopsora pachyrhizi, strain with amino acid substitution F129L in the mitochondrial cytochrome b protein. The experiment is described as follows: Protective control of soybean rust on soybeans (PHAKPA P2). Conditions: for % PHAKPA (F129L) Disease level, P2 at 4 ppm: protective P2, 4 ppm; for % PHAKPA (F129L) Disease level, P2 at 4 ppm / % PHAKPA (F129L) Disease level, P2 at 16 ppm: soybean rust F129L strain; for % PHAKPA (F129L) Disease level, P2 at 16 ppm: protective P2, 16 ppm. The class given is in vivo.

The test system is the same in experiment [2]. Briefly: Protective control of soybean rust on soybeans (PHAKPA P6). The class given is in vivo. The conditions noted are these: for % PHAKPA (F129L) Disease level, P6 at 4 ppm: protective P6, 4 ppm; for % PHAKPA (F129L) Disease level, P6 at 4 ppm / % PHAKPA (F129L) Disease level, P6 at 16 ppm: soybean rust F129L strain; for % PHAKPA (F129L) Disease level, P6 at 16 ppm: protective P6, 16 ppm.

Experiment [3] concerns Phakopsora pachyrhizi, isolate sensitive to Qo inhibitors (wt). The experiment is described as follows: Protective control of soybean rust on detached soybean leaves (PHAKPA P1 DL), wt isolate. The class given is in vivo. Conditions: Table C6a.
In experiment [4] the test system is Phakopsora pachyrhizi, isolate with amino acid substitution F129L in the mitochondrial cytochrome b protein. Briefly: Protective control of soybean rust on detached soybean leaves (PHAKPA P1 DL), F129L isolate. The conditions noted are these: Table C6b. The format is in vivo.
The subject of experiment [5] is Pyricularia oryzae. Briefly: microbe, parasite or virus in culture. Conditions: Pyricularia oryzae, 168 h, read-out: Fungal growth (%) PYRIOR. The class given is cell-based.
Experiment [6] concerns Alternaria solani, sensitive wild-type isolate (wt). The experiment is described as follows: microbe, parasite or virus in culture. The class given is cell-based. Conditions: 168 h, read-out: Fungal growth (%) ALTESO wt.
Experiment [7] relates to Alternaria solani, Qo inhibitor-resistant isolate containing F129L in the mitochondrial cytochrome b protein. Briefly: Micro titer plate test, activity against Alternaria solani causing early blight (ALTESO), F129L. The class given is cell-based. The conditions noted are these: Alternaria solani, 168 h.
For experiment [8], the system named is Microdochium nivale. The experiment is described as follows: microbe, parasite or virus in culture. The conditions noted are these: 168 h, read-out: Fungal growth (%) MONGNI. The class given is cell-based.
Experiment [9] relates to Septoria tritici. The experiment is described as follows: microbe, parasite or virus in culture. The format is cell-based. The conditions noted are these: Zymoseptoria tritici, 168 h, read-out: Fungal growth (%) SEPTTR.
The test system of experiment [10] is Colletotrichum orbiculare. The experiment is described as follows: microbe, parasite or virus in culture. The conditions noted are these: 168 h, read-out: Fungal growth (%) COLLLA. The format is cell-based.

Like-named read-outs stand apart in the source and are kept apart here.

With `CNC(=O)/C(=N/OC)c1cccc(C)c1CO/N=C(\C)c1ccc(Cl)cc1` [Ex. 158], in experiment [1] (Table C2, protective, inoculation 2 days after spraying, 4 ppm, % diseased leaf area on soybean, untreated 100), the “PHAKPA (F129L) Disease level (%) P2 at 4 ppm” value is given as 1%. The “% PHAKPA (F129L) Disease level, P2 at 4 ppm” value in [1] is given as 0%. In addition, the “% PHAKPA (F129L) Disease level, P2 at 16 ppm” value in experiment [1] is on record as 0%. Also, the “PHAKPA (F129L) Disease level (%) P6 at 4 ppm” value in experiment [2] (Table C2, protective, inoculation six days after spraying, 4 ppm, % diseased leaf area on soybean, untreated 99) is reported as 4%. Also, the “% PHAKPA (F129L) Disease level, P6 at 4 ppm” value in experiment [2] was determined as 2%. Moreover, the “% PHAKPA (F129L) Disease level, P6 at 16 ppm” value in experiment [2] is recorded as 0%. Besides, the “PHAKPA P1 DL Disease level (%), Qo I-sensitive wt isolate (0% F129L)” value in experiment [3] (0.3 ppm, 0 ppm control 93) was determined as 38%; in [3] (1 ppm), 7%; in [3] (3 ppm), 2%; in experiment [3] (10 ppm) it was 1%; in experiment [3] (30 ppm) it was 4%; in experiment [3] (100 ppm), 5%. Moreover, the “PHAKPA P1 DL Disease level (%), Qo I-sensitive wt isolate (0% F129L)” value in [3] (300 ppm) amounted to 4%. Further, the “PHAKPA P1 DL Disease level (%), Qo I-resistant F129L isolate (100% F129L)” value is recorded as 87% in experiment [4] (0.3 ppm, 0 ppm control 93); 57% in [4] (1 ppm); 8% in experiment [4] (3 ppm); 2% in experiment [4] (10 ppm); 4% in experiment [4] (30 ppm); 4% in [4] (100 ppm). Moreover, the “PHAKPA P1 DL Disease level (%), Qo I-resistant F129L isolate (100% F129L)” value in [4] (300 ppm) was 5%. Further, the activity at 0.016 ppm was found to be 38% in experiment [5]; 66% in experiment [6]; 79% in [7] (Table C5, read-out: Fungal growth (%) ALTESO F129L); 71% in experiment [8].

As to `CNC(=O)/C(=N/OC)c1cccc(C)c1CO/N=C(\C)c1cccc(C)c1` [Ex. 77], in experiment [1] (P2 at 4 ppm, untreated 92%), the “PHAKPA (F129L) Disease level (%) P2 at 4 ppm” value is 37%. Further, in [1], the “% PHAKPA (F129L) Disease level, P2 at 4 ppm” value stood at 67% and the “% PHAKPA (F129L) Disease level, P2 at 16 ppm” value stood at 4%. Also, in [2] (P6 at 16 ppm, untreated 75%), the “PHAKPA (F129L) Disease level (%), P6 at 16 ppm” value was found to be 20%. In [2], the “% PHAKPA (F129L) Disease level, P6 at 4 ppm” value was 40% and the “% PHAKPA (F129L) Disease level, P6 at 16 ppm” value is given as 3%. Further, the activity at 0.016 ppm in [5] was determined as 20%. Also, the activity at 0.25 ppm in experiment [9] is 49%. Besides, the activity at 0.063 ppm in experiment [10] was 39%. Further, the activity at 0.016 ppm in [6] stood at 73%. Besides, the activity at 0.016 ppm in experiment [7] (Table C14, read-out: Fungal growth (%) ALTESO F129L) stood at 69%.
